Reference: patent US11192865B2, “Benzosulfonyl compounds” (Vivace Therapeutics, Inc., priority 2017, dated 2021)

What follows are molecules tested on 8XTBD luciferase reporter (assay: YAP Reporter Assay). Settings: Homo sapiens, HEK-293T; HEK293T cells stably transfected with 8XTBD luciferase reporter and pRLTK; 24-hr incubation; starting from 3 μM, 1:3 dilution, 10 points; read-out: Firefly Luciferase IC50.
Assay type: cell-based
Protocol: HEK293T cells stably transfected with 8XTBD luciferase reporter and pRLTK in 384-well plates were treated with the test compounds, starting from 3 μM (final concentration in assay plate), 1:3 dilution, and 10 points in quadruplicates. Post 24-hr incubation with compounds at 37° C. and 5% CO2, cells were lysed and 8XTBD-driven firefly luciferase and control TK-driven renilla luciferase activities were measured using Promega Dual-Luciferase Reporter Assay System.
Reagents: The reagents used for this study are: DMEM: Invitrogen #11960077, Dual-Glo Luciferase Assay System: Promega-E2980, Puromycin Dihydrochloride: Invitrogen-A1113803, 384-well plate: PerkinElmer-6007480, L-GLUTAMINE: Invitrogen-25030164, Hygromycin B: Invitrogen-10687010, and Penicillin-Streptomycin: Merk-TMS-AB2-C
Media: The media used for this assay were: Culture Medium: DMEM+1 ug/mL puromycin+200 ug/mL hygromycin (with 10% FBS+1 mM L-glutamine); and Assay Medium: DMEM (with 10% FBS+1 mM L-glutamine+1×P/S).
Cell Plating: The appropriate media was warmed at 37° C. by water bath: Culture Medium, Assay Medium, 1* D-PBS, 0.05% trypsin-EDTA. The cells were trypsinized after removing all media, then washed with 1* sterile D-PBS and then with 2 ml 0.05% trypsin-EDTA. The cells were then incubated at RT for one minute. Then 10 ml/75 cm2 flask Assay Medium was added to each flask. Using a 10 ml pipette, the cells were then gently resuspended in the media, until the clumps completely disappeared. The cells were then transferred into 50 ml centrifuge tubes and were centrifuged at 800 rpm for 5 mins. The medium was removed and the cells were resuspended with Assay Medium. An aliquot of cells was used to count the cell density (cells/ml). The cell suspension was then diluted with Assay Medium to a concentration of 6×10^4 cells/ml. 50 ul cells suspension was then plated to 384-well plate (PerkinElmer-6007480), 3×10^3 cells/well and the cells were incubated in an incubator at 37° C., 5% CO2.
Compound Treatment: In the afternoon (incubation of the plate with 3-4 hrs), the test compounds were added by Echo, starting from 3 uM (final concentration in the assay plate), 1:3 dilution, 10 points, quadruplicates. The plate was placed at 37° C., 5% CO2 incubator for 24 hrs.
Detection: The Dual-Glo Luciferase Reagent was prepared by transferring the contents of one bottle of Dual-Glo Luciferase Buffer to one bottle of Dual-Glo Luciferase Substrate to create the Dual-Glo Luciferase Reagent. Mixing was performed by inversion until the substrate was thoroughly dissolved. After mixing, the reagent was aliquoted into 15 ml tubes. In the afternoon (24 hrs post compound treatment), the DMEM+ medium in the 384 well plates were aspirated by Microplate Washer.
Measuring firefly luciferase activity: 20 ul Dual-Glo Luciferase Reagent was added to the 384-well plates. The plates were protected from light to prevent interference with the assay. The plates were shaken for 1 min followed centrifuging plates at 1000 rpm for 30 seconds. After waiting at least 10 minutes, the firefly luminescence was measured by Envision.
Measuring renilla luciferase activity: 20 ul Stop-Glo Reagent was added to the 384-well plates. The plates were shaken for 1 min and then centrifuged at 1000 rpm for 30 seconds. After waiting at least 10 minutes, the renilla luminescence was measured by Envision.
Compound IC50 and maximum inhibition on the firefly luciferase and renilla luciferase activities were reported separately.

SMILES	IC50
CNS(=O)(=O)c1ccc(NC2CCCCC2)c(-c2nnn(Cc3ccccc3F)n2)c1 [Compound 19, 4-(cyclohexylamino)-3-(2-(2-fluorobenzyl)-2H-tetrazol-5-yl)-N-methylbenzenesulfonamide]	≤ 100 nM
CNS(=O)(=O)c1ccc(NC2CCCCC2)c(-c2nnn(Cc3ccccc3)n2)c1 [Compound 20, 3-(2-benzyl-2H-tetrazol-5-yl)-4-(cyclohexylamino)-N-methylbenzenesulfonamide]	≤ 100 nM
CCCCn1nnc(-c2cc(S(=O)(=O)NC)ccc2NC2CCCCC2)n1 [Compound 21, 3-(2-butyltetrazol-5-yl)-4-(cyclohexylamino)-N-methyl-benzenesulfonamide]	≤ 100 nM
CNS(=O)(=O)c1ccc(NC2CCCCC2)c(-c2nnn(-c3ccccc3F)n2)c1 [Compound 23, 4-(cyclohexylamino)-3-(2-(2-fluorophenyl)-2H-tetrazol-5-yl)-N-methylbenzenesulfonamide]	100 to 1000 nM
CNS(=O)(=O)c1ccc(NC2CCCCC2)c(-c2nnn(C(C)C)n2)c1 [Compound 26, 4-(cyclohexylamino)-3-(2-isopropyl-2H-tetrazol-5-yl)-N-methylbenzenesulfonamide]	≤ 100 nM
CNS(=O)(=O)c1ccc(NC2CCCCC2)c(-c2nnn(CC(C)C)n2)c1 [Compound 27, 4-(cyclohexylamino)-3-(2-isobutyl-2H-tetrazol-5-yl)-N-methylbenzenesulfonamide]	100 to 1000 nM
CNS(=O)(=O)c1ccc(NC2CCCCC2)c(-c2nnn(Cc3cccnc3)n2)c1 [Compound 29, 4-(cyclohexylamino)-N-methyl-3-(2-(pyridin-3-ylmethyl)-2H-tetrazol-5-yl)benzenesulfonamide]	≤ 100 nM

Next, values leading:

IC50	SMILES
≤ 100 nM	CNS(=O)(=O)c1ccc(NC2CCCCC2)c(-c2nnn(C)n2)c1 [Compound 22, 4-(cyclohexylamino)-N-methyl-3-(2-methyl-2H-tetrazol-5-yl)benzenesulfonamide]
> 3000 nM	CNS(=O)(=O)c1ccc(NC2CCCCC2)c(-c2nnn(C3CCN(C(=O)OC(C)(C)C)C3)n2)c1 (stereo not drawn) [Compound 24, tert-butyl 3-(5-(2-(cyclohexylamino)-5-(N-methylsulfamoyl)phenyl)-2H-tetrazol-2-yl)pyrrolidine-1-carboxylate]
> 3000 nM	CNS(=O)(=O)c1ccc(NC2CCCCC2)c(-c2nnn(C3CN(C(=O)OC(C)(C)C)C3)n2)c1 [Compound 25, tert-butyl 3-(5-(2-(cyclohexylamino)-5-(N-methylsulfamoyl)phenyl)-2H-tetrazol-2-yl)azetidine-1-carboxylate]
> 3000 nM	CNS(=O)(=O)c1ccc(NC2CCCCC2)c(-c2nnn(C3CCN(C(=O)OC(C)(C)C)CC3)n2)c1 [Compound 28, tert-butyl 4-(5-(2-(cyclohexylamino)-5-(N-methylsulfamoyl)phenyl)-2H-tetrazol-2-yl)piperidine-1-carboxylate]
> 3000 nM	CNS(=O)(=O)c1ccc(NC2CCCCC2)c(-c2nnn(C3CCNCC3)n2)c1 [Compound 30, 4-(cyclohexylamino)-N-methyl-3-(2-(piperidin-4-yl)-2H-tetrazol-5-yl)benzenesulfonamide]
100 to 1000 nM	CNS(=O)(=O)c1ccc(NC2CCCCC2)c(-c2nnn(C3CCN(C(C)=O)CC3)n2)c1 [Compound 31, 3-(2-(1-acetylpiperidin-4-yl)-2H-tetrazol-5-yl)-4-(cyclohexylamino)-N-methylbenzenesulfonamide]
> 3000 nM	CNS(=O)(=O)c1ccc(NC2CCCCC2)c(-c2nnn(C3CCN(S(C)(=O)=O)CC3)n2)c1 [Compound 32, 4-(cyclohexylamino)-N-methyl-3-(2-(1-(methylsulfonyl)piperidin-4-yl)-2H-tetrazol-5-yl)benzenesulfonamide]
100 to 1000 nM	CNS(=O)(=O)c1ccc(NC2CCCCC2)c(-c2nnn(C3CCN(c4cccnc4)CC3)n2)c1 [Compound 33, 4-(cyclohexylamino)-N-methyl-3-(2-(1-(pyridin-3-yl)piperidin-4-yl)-2H-tetrazol-5-yl)benzenesulfonamide]
